Measurements published in patent US7053047B2, “Cyclic pentapeptides and their preparation” (Purzer Pharmaceutical Co., Ltd., priority 2002, dated 2006).
Marks after values point to notes of the source that are not given here.

Tests used:
thrombus = assay: Thrombolytic effect in thrombolysis rat model (thrombus on bolt in arteriovenous polyethylene tube); assay type: in vivo, Wistar rat; details: for m, thrombus mass reduction: injected in 6 min, bolt weighed after 1 h, n = 8; for thrombolytic effect / potency (comparison in words): thrombolysis rat model, Tables 1 and 2
Experimental: The thrombolytic effect was evaluated by thrombolysis rat model.
0.1 ml Wistar rat blood was poured into a glass tube (length, 15 mm; external diameter, 5.0 mm; internal diameter, 2.5 mm) which was fixed vertically and the bottom was sealed with a rubber stopper. A stainless steel bolt was inserted quickly, the bolt diameter was 0.2 mm and the length was 12 mm. 15 min later, the bolt containing thrombus was taken out from the glass tube and weighed exactly.
Male Wistar rat weighing 220 g–280 g were anesthetized with pentobarbital sodium (80 mg/kg, i.p). The right arteria carotis communis and the left vena jugulars externa were separated. The bolt containing thrombus was put in the polyethylene tube and one end was inserted into the left vena jugulars externa. 50 IU/kg of heparin sodium was injected as anticoagulant, and the other tube end was inserted into the right arteria carotis communis. At this time the blood flowed from the right arteria carotis to the left vena jugulars externa via the polyethylene tube. Then normal saline solution, UK, GP6A (SEQ ID NO: 26), P6A (SEQ ID NO: 25) and KP6A (SEQ ID NO: 27) were injected in 6 min. The bolt was taken out and weighed after 1 h. The data are listed in Table 1 and Table 2, statistical data analysis was carried out by using student's t test, p<0.05 was considered significant.

[1] = test system: coronary artery thrombosis; assay: Thrombolysis with tissue plasminogene activator in dogs with coronary artery thrombosis; assay type: in vivo; details: injected i.v. together with tissue plasminogene activator
Excerpt: Peptide 6A is a degradation of fibrinogen β chain analogue which has been known to increase coronary artery and femoral artery blood flow. In 1978(1), peptide 6A was first isolated and purified from the β chain of human fibrinogen by Belew et al.(2). The composition of peptide 6A was confirmed as Ala-Arg-Pro-Ala-Lys (SEQ ID NO: 25). […] In 1997, the inventors prepared peptide 6A and its analogues by solution method and observed that these peptides have good potency for relaxing vascula, lowering blood pressure and anti-thrombosis. The synthetic techniques and functions of these compounds have been described in CN Patent No. 1146458.

[2] = test system: coronary artery and femoral artery blood flow; details: dogs; cited from earlier work

Substance	m, thrombus mass reduction (thrombus; dosage 5 μmol/kg)	parameters of thrombolysis [1]	coronary artery and femoral artery blood flow [2]	m, thrombus mass reduction (thrombus; dosage 10 μmol/kg)	m, thrombus mass reduction (thrombus; dosage 20 μmol/kg)	thrombolytic effect / potency (comparison in words) (thrombus)	thrombolytic effect compared with UK (thrombus; high concentration (>10 μmol) versus UK (2000 IU/Kg))
Cyclo(Lys-Arg-Pro-Ala-Lys) (KRPAK; cyclic; Cyclo KP6A) [CycloKP6A]	6.13 ± 2.31^a mg	–	–	–	–	–	–
H-Ala-Arg-Pro-Ala-LysOH (H-ARPAK-OH) [Compound P6A]	6.07 ± 2.14^a mg	no additional benefit on the parameters of thrombolysis	increases coronary artery and femoral artery blood flow	–	–	–	–
H-Lys-Arg-Pro-Ala-LysOH (KRPAK; KP6A)	0.28 ± 2.13 mg	–	–	–	–	–	–
Cyclo(Ala-Arg-Pro-Ala-Lys) (ARPAK; cyclic; Cyclo P6A) [CycloP6A]	10.62 ± 3.15^a mg	–	–	–	–	–	–
H-Gly-Arg-Pro-Ala-LysOH (GRPAK; GP6A)	9.31 ± 3.94^a mg	–	–	13.17 ± 4.13^a mg	16.81 ± 544^a,b mg	much more thrombolytic potency than the others	–
Cyclo(Gly-Arg-Pro-Ala-Lys) (GRPAK; cyclic; Cyclo GP6A) [CycloGP6A]	8.35 ± 2.76^a mg	–	–	17.31 ± 4.29^a mg	18.38 ± 2.08^a,b,c mg	much more thrombolytic potency than the others	even better than UK
